Assay results from patent US5466691A, “Thiophene compound” (Yoshitomi Pharmaceutical Industries, Ltd., priority 1991, dated 1995).
Read-outs that look alike come from different tables or passages of the source.

Tests used:
[1] = tested on: ddY mice; assay: Acute toxicity; format: in vivo; conditions: 5 days
[2] = target: T1, dopamine 2 (D2) receptor (Rattus norvegicus, UniProt P61169); assay: Affinity for dopamine 2 receptor ([3H]spiperone binding, synaptosome fraction of corpus striatum); parameters: species or system Wistar rat; conditions: tritiated spiperone 0.2 nM, 37° C., 20 minutes, read-out: binding D2, inhibition constant (Ki value)
T1 construct: A synaptosome fraction was separated from corpus striatum; from tissue; host or cells: corpus striatum of Wistar rat, synaptosome fraction
T1 sequence (P61169 whole entry): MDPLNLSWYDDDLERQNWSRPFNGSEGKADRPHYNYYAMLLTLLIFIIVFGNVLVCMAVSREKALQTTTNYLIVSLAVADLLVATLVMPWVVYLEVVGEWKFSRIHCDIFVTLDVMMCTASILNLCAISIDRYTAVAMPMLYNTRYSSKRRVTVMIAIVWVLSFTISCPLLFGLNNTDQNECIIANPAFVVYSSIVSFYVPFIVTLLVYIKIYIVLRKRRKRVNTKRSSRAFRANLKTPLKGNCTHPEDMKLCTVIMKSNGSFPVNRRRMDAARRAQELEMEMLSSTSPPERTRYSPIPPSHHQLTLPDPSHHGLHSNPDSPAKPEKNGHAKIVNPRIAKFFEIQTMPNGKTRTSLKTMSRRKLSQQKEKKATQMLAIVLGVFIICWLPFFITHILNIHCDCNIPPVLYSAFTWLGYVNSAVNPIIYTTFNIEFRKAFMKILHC
Method: Experiment Example 1: Affinity for dopamine 2 receptor
A specific binding of dopamine 2 (D2) receptor was tested according to the method described in Eur. J. Pharmacol. 46, 377 (1977).
A synaptosome fraction was separated from corpus striatum of 9-10 weeks old Wistar rat, and suspended in 50 mM Tris-HCl buffer (pH 7.1) containing 120 mM sodium chloride, 5 mM potassium chloride, 2 mM calcium chloride, 1 mM magnesium chloride, 10 μM pargyline and 0.1% ascorbic acid for use in the test.
The test compound at several concentrations and tritiated spiperone (final concentration 0.2 nM) were added to the synaptosome suspension, and each mixture was reacted at 37° C. for 20 minutes. After the reaction, the reaction mixture was filtered with suction through a Whatman GF/B glass filter. The filter was washed with 50 mM Tris-HCl buffer (pH 7.7), and the radioactivity of the filter was measured by a liquid scintillation counter. Non-specific binding was determined in the presence of 10^-4 M(±)-sulpiride. The concentration necessary for 50% inhibition (IC50) was determined on a graph, and inhibition constant (Ki value) was calculated.

[3] = target: T2, serotonin 1A (5-HT1A) receptor (Rattus norvegicus, UniProt P19327); assay: Affinity for serotonin 1A receptor ([3H]8-OH-DPAT binding, crude synaptosome fraction of hippocampus); conditions: tritiated 8-OH-DPAT 0.2 nM, pH 7.4, 37° C., 12 minutes, read-out: binding 5-HT1A, inhibition constant (Ki value)
T2 construct: A crude synaptosome fraction was separated from hippocampus; from tissue; host or cells: hippocampus of Wistar rat, crude synaptosome fraction
T2 sequence (P19327 1-422): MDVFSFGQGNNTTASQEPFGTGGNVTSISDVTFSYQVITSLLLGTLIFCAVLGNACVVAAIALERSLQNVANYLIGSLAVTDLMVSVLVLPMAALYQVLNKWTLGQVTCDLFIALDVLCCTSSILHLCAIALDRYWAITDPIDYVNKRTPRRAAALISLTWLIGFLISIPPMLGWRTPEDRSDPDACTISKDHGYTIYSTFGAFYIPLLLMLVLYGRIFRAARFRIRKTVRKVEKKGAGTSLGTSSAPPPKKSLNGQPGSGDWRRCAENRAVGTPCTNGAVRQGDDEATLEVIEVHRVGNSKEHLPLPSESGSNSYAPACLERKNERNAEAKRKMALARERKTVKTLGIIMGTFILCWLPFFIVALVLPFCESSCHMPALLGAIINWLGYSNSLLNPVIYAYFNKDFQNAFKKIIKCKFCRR
Method: Experiment Example 2: Affinity for serotonin 1A receptor
A specific binding of serotonin 1A (5-HT1A) receptor was tested according to the method described in J. Neurochem. 44, 1685 (1985).
A crude synaptosome fraction was separated from hippocampus of 9-10 weeks old Nistar rat, and suspended in 50 mM Tris-HCl buffer (pH 7.4) containing 1 mM manganese chloride for use in the test. The test compound at several concentrations and tritiated 8-hydroxy-2-dipropylaminotctralin (8-OH-DPAT, final concentration 0.2 nM) were added to the synaptosome suspension, and each mixture was reacted at 37° C. for 12 minutes. After the reaction, the reaction mixture was filtered with suction through a Whatman GF/B glass filter. The filter was washed with 50 mM Tris-HCl buffer (pH 7.7), and the radioactivity of the filter was measured by a liquid scintillation counter. Non-specific binding was determined in the presence of 10^-5 M serotonin (5HT). The concentration necessary for 50% inhibition (IC50) was determined on a graph, and inhibition constant (Ki value) was calculated.

[4] = target: T3, serotonin 2 (5-HT2) receptor (Rattus norvegicus, UniProt P14842); assay: Affinity for serotonin 2 receptor ([3H]ketanserin binding, crude synaptosome fraction of hippocampus); parameters: species or system Wistar rat; conditions: tritiated ketanserin 0.2 nM, pH 7.7, 37° C., 20 minutes, read-out: binding 5-HT2, inhibition constant (Ki value)
T3 construct: A crude synaptosome fraction was separated from hippocampus; from tissue; host or cells: hippocampus of Wistar rat, crude synaptosome fraction
T3 sequence (P14842 whole entry): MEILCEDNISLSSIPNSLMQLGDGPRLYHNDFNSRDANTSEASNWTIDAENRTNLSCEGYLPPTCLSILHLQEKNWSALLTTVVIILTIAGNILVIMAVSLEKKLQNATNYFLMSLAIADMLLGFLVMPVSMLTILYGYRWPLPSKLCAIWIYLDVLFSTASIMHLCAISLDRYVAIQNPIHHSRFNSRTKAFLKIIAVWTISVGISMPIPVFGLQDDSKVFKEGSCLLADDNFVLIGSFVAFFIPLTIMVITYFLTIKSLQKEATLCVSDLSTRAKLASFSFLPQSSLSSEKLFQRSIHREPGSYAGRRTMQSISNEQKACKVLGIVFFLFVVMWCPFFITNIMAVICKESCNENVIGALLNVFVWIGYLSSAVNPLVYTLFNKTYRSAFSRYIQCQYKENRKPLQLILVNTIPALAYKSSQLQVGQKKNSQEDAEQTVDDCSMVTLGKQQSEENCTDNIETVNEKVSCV
Method: Experiment Example 3: Affinity for serotonin 2 receptor
A specific binding of serotonin 2 (5-HT2) receptor was tested according to the method described in Mol. Pharmacol. 21, 301 (1981).
A crude synaptosome fraction was separated from hippocampus of 9-10 weeks old Wistar rat, and suspended in 50 mM Tris-HCl buffer (pH 7.7) for use in the test. The test compound at several concentrations and tritiated ketanserin (final concentration 0.2 nM) were added to the synaptosome suspension, and each mixture was incubated at 37° C. for 20 minutes. After the incubation, the mixture was filtered with suction through a Whatman GF/B glass filter. The filter was washed with 50 mM Tris-HCl buffer (plt 7.7), and the radioactivity of the filter was measured by a liquid scintillation counter. Non-specific binding was determined in the presence of 10^-5 M mianserin. The concentration necessary for 50% inhibition (IC50) was determined on a graph, and inhibition constant (Ki value) was calculated.

[5] = tested on: apomorphine; assay: Anti-apomorphine action (mouse); format: in vivo; conditions: 1 h before apomorphine, read-out: anti-apomorphine effect ED50
Method: The test compound was orally administered to the mice, and 60 minutes later, 0.5 mg/kg of apomorphine hydrochloride was subcutaneously administered. The movement for 20 minutes from immediately after the administration was measured using Balimex (Columbus, USA).

Structure (SMILES)	death ([1]; 100 mg/kg intraperitoneally, 5 male ddY mice)	death ([1]; 300 mg/kg orally)	Ki [2] [nM]	Ki [3] [nM]	Ki [4] [nM]	ED50 ([5]; po) [mg/kg]	ED50 ([5]; male dd mice, oral, 60 minutes before 0.5 mg/kg s.c. apomorphine hydrochloride, movement for 20 minutes) [mg/kg]
CC(=O)c1ccc(SCCCN2CCN(c3cccc(C)c3C)CC2)s1 [Example 4, 1(3-((5-acetyl-2-thienyl)thio)propyl)-4-(2,3-dimethylphenyl)piperazine]	No death was observed	no death was observed	–	–	–	–	–
CC(=O)c1ccc(SCCCN2CCN(c3nsc4ccccc34)CC2)s1 [Example 21, 3-(4-(3-((5-acctyl-2-thicnyl)thio)propyl)-l-piperadinyl)1,2-benzisothiazole]	–	–	1.3	0.12	0.59	35	–
CC(=O)c1ccc(SCCCN2CCC(c3noc4cc(F)ccc34)CC2)s1 [Example 36, 3-(1-(3-((5-acctyl-2-thienyl)thio)propyl)piperidin-4-yl)-6-fluoro-1,2-benzisoxazole]	–	–	0.61	0.75	1.3	3.4	–
CC(=O)Nc1ccc(SCCCN2CCC(c3noc4cc(F)ccc34)CC2)s1 [Example 40, 3-(1-(3-((5-acetylamino-2-thienyl)thio)propyl)piperidin-4-yl) -6-fluoro-1,2-benzisoxazole]	–	–	0.71	0.35	0.45	1	–
CC(=O)NCc1ccc(SCCCN2CCC(c3noc4cc(F)ccc34)CC2)s1 [Example 93, 3-(1-(3-((5-acetylaminomethyl-2-thienyl)thio)propyl)-piperidin-4-yl)-6-fluoro-1,2-benzisoxazole]	–	–	0.8	26	0.79	2.9	–
CC(=O)NCc1ccc(C(=O)CCCN2CCC(c3noc4cc(F)ccc34)CC2)s1 [Example 95, 3-(1-(4-(5-acetylaminomethyl-2-thienyl)-4-oxobutyl)piperidin-4-yl)-6-fluoro-1,2-benzisoxazole]	–	–	2.5	140	0.059	2.6	–
CC(=O)NCc1ccc(CCCCN2CCC(c3noc4cc(F)ccc34)CC2)s1 [Example 108, 3-(1-(4-(5-acetylaminomethyl-2-thienyl)butyl)piperidin-4-yl) -6-fluoro-1,2-benzisoxazole]	–	–	2	56	2.1	0.41	–
CC(=O)NCc1ccc(CCN2CCC(c3noc4cc(F)ccc34)CC2)s1 [Example 119, 3-(1-(2-(5-acetylaminomethyl-2-thicnyl)ethyl)piperidin-4-yl)-6-fluoro-1,2-benzisoxazole]	–	–	3.8	14	0.65	0.16	–
CC(=O)NCc1sc(CCN2CCC(c3noc4cc(F)ccc34)CC2)cc1C [Example 151, 3-(1-(2-(5-acetylaminomethyl-4-methyl-2-thienyl)ethyl)-piperadin-4-yl)-6-fluoro-1,2-benzisoxazole]	–	–	3.8	15	0.099	–	0.76
CC(=O)NCc1cc(CCN2CCC(c3noc4cc(F)ccc34)CC2)c(C)s1 [Example 155, 3-(1-(2-(5-acetylaminomethyl-2-methyl-3-thienyl)ethyl)-piperidin-4-yl)-6-fluoro-1,2-benzisoxazole]	–	–	1.4	> 100	0.37	1.2	–
CC(=O)NCCc1ccc(CCN2CCC(c3noc4cc(F)ccc34)CC2)s1 [Example 158, 3-(1-(2-(5-(2-acetylaminoethyl)-2-thienyl)ethyl)piperidin-4-yl) -6-fluoro-1,2-benzisoxazole]	–	–	0.94	16	0.13	0.14	–
CC(=O)NCCc1sc(CCN2CCC(c3noc4cc(F)ccc34)CC2)cc1Br [Example 159, 3-(1-(2-(5-(2-acetylaminoethyl)-4-bromo-2-thienyl)ethyl)-piperidin-4-yl) -6-fluoro-1,2-benzisoxazole]	–	–	0.5	12	0.047	0.53	–
NCc1ccc(CCCCN2CCC(c3noc4cc(F)ccc34)CC2)s1 [Example 165, 3-(1-(4-(5-aminomethyl-2-thienyl)butyl)piperidin-4-yl)-6-fluoro-1,2-benzisoxazole]	–	–	0.69	1.7	1.3	0.24	–
